We go through three molecules from patent US5317101A, “Tricyclic heterocycles” (Imperial Chemical Industries PLC, priority 1991, dated 1994).

Assay [1] has as its target T1, EP1 receptors (PGE2 -induced contractions of the ileum) (Cavia porcellus, UniProt A0A286XHJ6).
T1 construct: ileum was immersed in oxygenated Krebs solution; from tissue; host or cells: guinea pig ileum
T1 sequence (A0A286XHJ6 1-405): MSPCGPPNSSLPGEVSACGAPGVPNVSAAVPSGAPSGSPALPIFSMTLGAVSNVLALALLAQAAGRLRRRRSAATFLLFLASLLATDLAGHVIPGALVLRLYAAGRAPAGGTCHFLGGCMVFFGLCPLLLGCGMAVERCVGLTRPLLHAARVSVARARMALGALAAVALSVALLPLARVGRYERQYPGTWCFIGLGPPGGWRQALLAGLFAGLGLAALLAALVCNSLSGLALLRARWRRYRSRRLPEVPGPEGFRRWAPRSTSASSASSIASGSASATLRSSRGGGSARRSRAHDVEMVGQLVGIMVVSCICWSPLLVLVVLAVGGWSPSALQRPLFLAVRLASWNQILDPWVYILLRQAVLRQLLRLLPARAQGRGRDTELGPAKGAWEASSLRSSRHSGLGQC
Briefly: Test (a): in-vitro guinea pig ileum assay, inhibition of PGE2-induced contractions. To be noted: PGE2-induced contraction, read-out: pA2 value (converted). Type of assay: cell-based. The procedure:
(a) an in-vitro guinea pig ileum assay which assesses the inhibitory properties of a test compound against PGE2 -induced contractions of the ileum; ileum was immersed in oxygenated Krebs solution containing indomethacin (4 μg/ml) and atropine (1 μM) and which was maintained at 37° C.; the ileum was subject to a tension of 1 g; a control dose response curve for PGE2 -induced contraction of the ileum was obtained; test compound (dissolved in dimethylsulphoxide) was added to the Krebs solution and a dose response curve for the PGE2 - induced contraction of the ileum in the presence of the test compound was obtained; the pA2 value for the test compound was calculated;
Prostanoid receptors and in particular receptors for PGE2 have been tentatively characterised by Kennedy et al. (Advances in Prostaglandin, Thromboxane and Leukotriene Research, 1983, 11, 327).

Another assay relates to PGE2 receptors. To be noted: guinea pig ileum or dog fundus; cited from earlier work.
Assay [2] has as its system abdominal constriction induced by the intraperitoneal administration of phenylbenzoquinone. Briefly: Test (b): in-vivo assay in mice, PBQ-induced abdominal constriction. To be noted: 100 mg/kg, oral dosing. An excerpt: (b) an in-vivo assay in mice which assesses the inhibitory properties of a test compound against abdominal constriction induced by the intraperitoneal administration of phenylbenzoquinone (hereinafter PBQ) using the procedure disclosed in European Patent Application No. 0218077.

Each structure is given as a SMILES string.

`O=C(O)c1ccc(CN2Cc3ccccc3Oc3ccc(Cl)cc32)s1` [5-(8-chloro-10,11-dihydrodibenzo[b,f][1,4]oxazepin-10-ylmethyl)thiophene-2-carboxylic acid]: the Kb in assay [1] was 31.6 nM.
As for `CC(=O)NNC(=O)N1Cc2ccccc2Oc2ccc(Cl)cc21` [SC-19220], the “effect on PGE2 action” value in the assay with PGE2 receptors is on record as “blocks the effect of PGE2”.
As for `O=C(O)c1ccc(CN2Cc3ccccc3Nc3ccccc32)s1` [5-(10,11-dihydrodibenzo[b,e][1,4]diazepin-10-ylmethyl)thiophene-2-carboxylic acid], in assay [1], the Kb is 25.1 nM. Also, the “activity in Test (b)” value in assay [2] was “significant activity”.
